Experimental data published in patent US20230113817A1, “DILEUCINE COMPOSITIONS AND METHODS OF USE THEREOF FOR FAT LOSS” (Ingenious Ingredients, LP, priority 2021, published 2023).

Tests used:
[1] = system: body fat of overweight subjects; test: Resistance exercise training study, body composition and body fat; type: in vivo, human; conditions: 2 g per day, n=7 per treatment group, beginning vs conclusion of study (FIG. 2)
Text: A randomized, double-blind, cross over design, resistance exercise training study was preformed to assess the impact of administration of the instantly disclosed compositions on subject body composition and body fat. Subjects were “overweight”, BMI of 26.8 in the leucine group, 25.0 in the dileucine group. Treatment groups received either leucine (2 g per day), dileucine (2 g per day), or placebo (n=7, per treatment group). Body measurements were taken at the beginning and conclusion of the study.

[2] = system: body weight of male Swiss albino mice; test: Weight management study in treadmill-trained mice; type: in vivo; conditions: daily treatment for 28 days
Method: Animal studies were conducted to investigate the effects of test substances (treatment) on weight management in male Swiss albino mice. Animals were divided into 17 groups with each group consisting of 8 animals. The test groups were treated with the test substances daily for 28 days. All the animals were subjected to treadmill training for 5 days a week for 28 days. Measurements were taken on day 0 and 28th day.

## CC(C)C[C@H](NC(=O)[C@@H](N)CC(C)C)C(=O)O [Dileucine, L-Leucyl-L-leucine]
[1]
  body fat following resistance training: decreased body fat
[2]; treadmill training 5 days a week, dileucine 411 mg/kg, partner doses per Table 1
  Weight in grams: 33.23 grams
[2]; weight vs control group, treadmill training, doses per Table 1
  Percent Difference from Placebo: −2.69%

## CC(C)C[C@H](N)C(=O)O [leucine]
[1]
  body fat following resistance training: modest increases in body fat
